Assay results reported in PubChem BioAssay AID256 (DTP/NCI, 2004).
Toxic doses and inconclusive results are not listed. Rule for the calls: active = survival T/C of 150% or more; inactive = T/C below 125% in these data.

System: CD2F1 mice, L1210 leukemia ip, survival T/C
Assay: NCI In Vivo Anticancer Drug Screen. Data for tumor model L1210 Leukemia (intraperitoneal) in CD2F1 (CDF1) mice
Conditions: higher = longer survival
Procedure, shortened: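 Each value reflects a quotient of treated over vehicle control outcomes in mice with a transplanted tumor.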

[1] = endpoint: mean survival time, dose: 100.0 mg/kg/injection, schedule: Q01DX009 (ip), vehicle: saline with Tween-80
[2] = endpoint: mean survival time, dose: 100.0 mg/kg/injection, schedule: Q04DX003 (ip), vehicle: saline with Tween-80
[3] = endpoint: mean survival time, dose: 200.0 mg/kg/injection, schedule: Q01DX009 (ip), vehicle: saline with Tween-80
[4] = endpoint: mean survival time, dose: 200.0 mg/kg/injection, schedule: Q04DX003 (ip), vehicle: saline with Tween-80
[5] = endpoint: mean survival time, dose: 400.0 mg/kg/injection, schedule: Q04DX003 (ip), vehicle: saline with Tween-80
[6] = endpoint: mean survival time, dose: 100.0 mg/kg/injection, schedule: Q04DX003 (ip), vehicle: saline
[7] = endpoint: mean survival time, dose: 200.0 mg/kg/injection, schedule: Q04DX003 (ip), vehicle: saline
[8] = endpoint: mean survival time, dose: 400.0 mg/kg/injection, schedule: Q04DX003 (ip), vehicle: saline
[9] = endpoint: mean survival time, dose: 100.0 mg/kg/injection, schedule: Q04DX002 (ip), vehicle: saline with Tween-80
[10] = endpoint: mean survival time, dose: 400.0 mg/kg/injection, schedule: Q04DX002 (ip), vehicle: saline with Tween-80
[11] = endpoint: mean survival time, dose: 50.0 mg/kg/injection, schedule: Q01DX009 (ip), vehicle: saline with Tween-80

Measured: T/C

CCCCCCCCCCCCCCCCCCNC(=O)Nc1ccc(CC)cc1
inactive: [1] 98 % of control | [2] 94 % of control | [3] 109 % of control | [4] 89 % of control | endpoint: mean survival time, dose: 400.0 mg/kg/injection, schedule: Q01DX009 (ip), vehicle: saline with Tween-80 110 % of control | [5] 93 % of control

CC(C)(C)N1CCCC1
inactive: endpoint: mean survival time, dose: 100.0 mg/kg/injection, schedule: Q04DX003 (ip), vehicle: acetone 96 % of control

O=C(O)C(O)C(O)C(O)CO (configuration not stated)
inactive: [6] 95 % of control | [7] 105 % of control | [8] 97 % of control

CC1c2ccccc2CC2(C)CN12 (configuration not stated)
inactive: endpoint: mean survival time, dose: 75.0 mg/kg/injection, schedule: Q01DX001 (ip), vehicle: saline 103 % of control | endpoint: mean survival time, dose: 150.0 mg/kg/injection, schedule: Q01DX001 (ip), vehicle: saline 101 % of control | endpoint: mean survival time, dose: 300.0 mg/kg/injection, schedule: Q01DX001 (ip), vehicle: saline 97 % of control

CCCCS/C=C\C(=O)OCC
inactive: [9] 102 % of control | [10] 102 % of control

CCOC(=O)Nc1cc2c(ncn2-c2ccccc2)c(N)n1
inactive: endpoint: mean survival time, dose: 100.0 mg/kg/injection, schedule: Q01DX001 (ip), vehicle: Klucel (hydroxypropylcellulose) (HPC) 98 % of control | endpoint: mean survival time, dose: 200.0 mg/kg/injection, schedule: Q01DX001 (ip), vehicle: Klucel (hydroxypropylcellulose) (HPC) 96 % of control

Cc1c(Cl)cccc1NC(=O)/C=C/c1ccccc1
inactive: [9] 94 % of control | endpoint: mean survival time, dose: 200.0 mg/kg/injection, schedule: Q04DX002 (ip), vehicle: saline with Tween-80 102 % of control | [10] 94 % of control

O=C(C[n+]1cc2ccccc2cc1Cl)c1ccccc1
inactive: endpoint: mean survival time, dose: 100.0 mg/kg/injection, schedule: Q04DX003 (ip), vehicle: Klucel (hydroxypropylcellulose) (HPC) 97 % of control | endpoint: mean survival time, dose: 200.0 mg/kg/injection, schedule: Q04DX003 (ip), vehicle: Klucel (hydroxypropylcellulose) (HPC) 88 % of control

COc1ccc(S(=O)(=O)F)cc1NC(=O)COc1cccc(Cl)c1
inactive: [2] 96 % of control | [4] 97 % of control | [5] 103 % of control

CCCCCOC(CN)C(Cl)(Cl)Cl (configuration not stated)
inactive: endpoint: mean survival time, dose: 12.5 mg/kg/injection, schedule: Q01DX009 (ip), vehicle: saline with Tween-80 101 % of control | endpoint: mean survival time, dose: 25.0 mg/kg/injection, schedule: Q01DX009 (ip), vehicle: saline with Tween-80 96 % of control | [11] 95 % of control | [1] 98 % of control

CCOc1ccc(-c2nc(N)nc(N)n2)cc1
inactive: endpoint: mean survival time, dose: 12.5 mg/kg/injection, schedule: Q01DX009 (ip), vehicle: water 101 % of control | endpoint: mean survival time, dose: 25.0 mg/kg/injection, schedule: Q01DX009 (ip), vehicle: water 97 % of control | endpoint: mean survival time, dose: 50.0 mg/kg/injection, schedule: Q01DX009 (ip), vehicle: water 97 % of control | endpoint: mean survival time, dose: 100.0 mg/kg/injection, schedule: Q01DX009 (ip), vehicle: water 97 % of control | endpoint: mean survival time, dose: 200.0 mg/kg/injection, schedule: Q01DX009 (ip), vehicle: water 97 % of control

CCC(CC)n1c(C)cc(=O)n1C(CC)CC
inactive: endpoint: mean survival time, dose: 5.0 mg/kg/injection, schedule: Q01DX001 (ip), vehicle: saline 97 % of control | endpoint: mean survival time, dose: 10.0 mg/kg/injection, schedule: Q01DX001 (ip), vehicle: saline 97 % of control | endpoint: mean survival time, dose: 20.0 mg/kg/injection, schedule: Q01DX001 (ip), vehicle: saline 95 % of control

COC(=O)c1cccc2c1/C(=N/NC(N)=S)c1ccccc1-2
inactive: endpoint: mean survival time, dose: 50.0 mg/kg/injection, schedule: Q01DX001 (ip), vehicle: carboxymethylcellulose (CMC) 102 % of control | endpoint: mean survival time, dose: 100.0 mg/kg/injection, schedule: Q01DX001 (ip), vehicle: carboxymethylcellulose (CMC) 98 % of control | endpoint: mean survival time, dose: 200.0 mg/kg/injection, schedule: Q01DX001 (ip), vehicle: carboxymethylcellulose (CMC) 102 % of control | endpoint: mean survival time, dose: 400.0 mg/kg/injection, schedule: Q01DX001 (ip), vehicle: carboxymethylcellulose (CMC) 102 % of control

CCN(CC)CC[C-]=O.[NH-]CC[NH-].[Pd]
inactive: endpoint: mean survival time, dose: 3.13 mg/kg/injection, schedule: Q04DX003 (ip), vehicle: water 101 % of control | endpoint: mean survival time, dose: 6.25 mg/kg/injection, schedule: Q04DX003 (ip), vehicle: water 101 % of control | endpoint: mean survival time, dose: 12.5 mg/kg/injection, schedule: Q04DX003 (ip), vehicle: water 101 % of control | endpoint: mean survival time, dose: 25.0 mg/kg/injection, schedule: Q04DX003 (ip), vehicle: water 93 % of control | endpoint: mean survival time, dose: 50.0 mg/kg/injection, schedule: Q04DX003 (ip), vehicle: water 93 % of control

O=C1CC(=Nc2ccc([N+](=O)[O-])cc2)NN1c1c(Cl)cc(Cl)cc1Cl
inactive: [2] 101 % of control | [4] 97 % of control | [5] 97 % of control

O=C(O)C(=O)O.[NH-]CC(O)CN(CC(O)CO)c1ccccc1.[Pt+2] (configuration not stated)
inactive: endpoint: median survival time, dose: 10.0 mg/kg/injection, schedule: Q04DX003 (ip), vehicle: distilled water + Tween-80 100 % of control | endpoint: median survival time, dose: 20.0 mg/kg/injection, schedule: Q04DX003 (ip), vehicle: distilled water + Tween-80 98 % of control | endpoint: median survival time, dose: 40.0 mg/kg/injection, schedule: Q04DX003 (ip), vehicle: distilled water + Tween-80 101 % of control | endpoint: median survival time, dose: 80.0 mg/kg/injection, schedule: Q04DX003 (ip), vehicle: distilled water + Tween-80 102 % of control

CC(=O)OC1CCC2(C)C(C1)C(=O)OC1C2CCC2(C)C(C(C)CCCC(C)C)CCC12 (configuration not stated)
inactive: [2] 94 % of control | [4] 94 % of control | [5] 94 % of control

CC(=O)OCC1OC(N=C=S)C(OC(C)=O)C(OC(C)=O)C1OC(C)=O (configuration not stated)
inactive: [11] 115 % of control

COc1cc(OC)c(C(=O)c2ccccc2N)c(OC)c1
inactive: [11] 98 % of control | [1] 101 % of control | [3] 98 % of control

COc1ccccc1N=Nc1c(O)n(-c2ccccc2OC)c(=S)n(-c2ccc(C)cc2)c1=O
inactive: endpoint: mean survival time, dose: 25.0 mg/kg/injection, schedule: Q04DX002 (ip), vehicle: saline with Tween-80 90 % of control | endpoint: mean survival time, dose: 50.0 mg/kg/injection, schedule: Q04DX002 (ip), vehicle: saline with Tween-80 90 % of control | [9] 90 % of control

CS(=O)(=O)c1ccccn1
inactive: endpoint: mean survival time, dose: 100.0 mg/kg/injection, schedule: Q01DX001 (ip), vehicle: saline sonified 100 % of control | endpoint: mean survival time, dose: 200.0 mg/kg/injection, schedule: Q01DX001 (ip), vehicle: saline sonified 97 % of control | endpoint: mean survival time, dose: 400.0 mg/kg/injection, schedule: Q01DX001 (ip), vehicle: saline sonified 100 % of control

OCC1OC(n2cnc3c2[nH]c(=S)n2ccnc32)C(O)C1O (configuration not stated)
inactive: endpoint: mean survival time, dose: 12.5 mg/kg/injection, schedule: Q01DX005 (ip), vehicle: water 96 % of control | endpoint: mean survival time, dose: 25.0 mg/kg/injection, schedule: Q01DX005 (ip), vehicle: water 101 % of control | endpoint: mean survival time, dose: 50.0 mg/kg/injection, schedule: Q01DX005 (ip), vehicle: water 96 % of control | endpoint: mean survival time, dose: 100.0 mg/kg/injection, schedule: Q01DX005 (ip), vehicle: water 101 % of control | endpoint: mean survival time, dose: 200.0 mg/kg/injection, schedule: Q01DX005 (ip), vehicle: water 101 % of control

CC(C)NC(=O)/C=C/C(=O)O
inactive: [6] 100 % of control | [7] 100 % of control | [8] 100 % of control

C(#Cc1ccccn1)c1ccccn1.[Pt].c1ccc([PH+](c2ccccc2)c2ccccc2)cc1.c1ccc([PH+](c2ccccc2)c2ccccc2)cc1
inactive: endpoint: median survival time, dose: 3.13 mg/kg/injection, schedule: Q04DX003 (ip), vehicle: distilled water + Tween-80 104 % of control | endpoint: median survival time, dose: 6.25 mg/kg/injection, schedule: Q04DX003 (ip), vehicle: distilled water + Tween-80 105 % of control | endpoint: median survival time, dose: 12.5 mg/kg/injection, schedule: Q04DX003 (ip), vehicle: distilled water + Tween-80 100 % of control | endpoint: median survival time, dose: 25.0 mg/kg/injection, schedule: Q04DX003 (ip), vehicle: distilled water + Tween-80 97 % of control | endpoint: median survival time, dose: 50.0 mg/kg/injection, schedule: Q04DX003 (ip), vehicle: distilled water + Tween-80 96 % of control | endpoint: median survival time, dose: 100.0 mg/kg/injection, schedule: Q04DX003 (ip), vehicle: distilled water + Tween-80 94 % of control

N#CN1CCOCC1
inactive: endpoint: mean survival time, dose: 100.0 mg/kg/injection, schedule: Q01DX009 (ip), vehicle: saline 101 % of control | [6] 91 % of control | endpoint: mean survival time, dose: 200.0 mg/kg/injection, schedule: Q01DX009 (ip), vehicle: saline 110 % of control | [7] 96 % of control

CC(C)(CCl)C(=O)O
inactive: [11] 110 % of control | [1] 104 % of control | [2] 100 % of control | [3] 93 % of control | [4] 104 % of control

C/C=C\c1ccc(OCCOC(=O)Nc2ccc(Cl)cc2OC)c(OC)c1
inactive: [11] 89 % of control | [1] 89 % of control | [3] 93 % of control
